Measurements reported in PMC3448000 (Biochemistry, 2012).
Values joined by “and” are separate entries in the source; they are usually repeats but may differ in a detail not shown here. Equal values may be shown once. Read-outs that look alike come from different tables or passages of the source. Blank lines part the entries; values can stand above or below the molecule they belong to.

Legend:
CYP3A4 [1] = experiment: UV/vis absorbance titration of purified CYP3A4; format: binding, human; conditions: for optical binding spectrum type: UV/vis difference spectrum; for Soret Red Shift: comparison of 1,2,3-TRZ and 17-click
CYP2C9 (hepta mutant) = experiment: UV/vis absorbance titration of purified CYP2C9; format: binding, human
[2] = cited from earlier work; for pKa: solution pKa
CYP3A4 [3] = conditions: 5–30 °C, 100 mM KPi pH 7.4 + 20% glycerol
CYP2B4 = conditions: 25°C; relative to 1-PI / 4-PI; cited from earlier work
[4] = tested on: human Methionine Amino Peptidase 2; conditions: cited from earlier work
CYP3A4 [5] = target: T1, CYP3A4 (Homo sapiens, UniProt P08684); experiment: Substrate depletion by CYP3A4 Supersomes; format: in vitro ADME
T1 sequence (P08684 whole entry): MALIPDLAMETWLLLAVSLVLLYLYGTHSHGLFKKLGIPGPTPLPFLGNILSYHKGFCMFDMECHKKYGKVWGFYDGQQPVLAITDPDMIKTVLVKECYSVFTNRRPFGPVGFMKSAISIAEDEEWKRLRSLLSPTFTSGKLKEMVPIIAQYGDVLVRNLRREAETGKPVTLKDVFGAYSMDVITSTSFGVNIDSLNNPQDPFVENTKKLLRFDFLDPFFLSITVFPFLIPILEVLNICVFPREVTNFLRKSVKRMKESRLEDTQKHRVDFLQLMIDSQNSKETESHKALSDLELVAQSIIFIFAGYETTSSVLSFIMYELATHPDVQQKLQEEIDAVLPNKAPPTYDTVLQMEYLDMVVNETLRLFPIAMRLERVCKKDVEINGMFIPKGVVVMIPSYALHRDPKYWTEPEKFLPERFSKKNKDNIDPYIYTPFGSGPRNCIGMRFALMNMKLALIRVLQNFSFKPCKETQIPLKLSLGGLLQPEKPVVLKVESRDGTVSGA

CYP3A4 [6] = target: T1, CYP3A4; experiment: Inhibition of testosterone 6β-hydroxylation by CYP3A4 in Supersomes; format: biochemical; conditions: 50 μM testosterone, LC-MS/MS
CYP3A4 [7] = conditions: CYP3A4 Supersomes, cited from earlier work
CYP3A4 [8] = conditions: cited from earlier work
[9] = 20°C, 100 mM KPi pH 7.4 + 20% glycerol

SMILES: c1c[nH]nn1 [1,2,3-TRZ, 1H-1,2,3-triazole]
Abs390 (1μM), estimate of efficiency of type II ligand to decrease high spin enzyme fraction (CYP3A4 [1]; 20°C): −0.023
Absmax (1μM), maximum peak trough intensity normalized to 1 μM (CYP3A4 [1]; 20°C): 0.058
Soret band red shift (CYP3A4 [1]; 20°C): 6 nm
Kd (CYP3A4 [1]; [9]): 14300 µM
optical binding spectrum type (CYP3A4 [1]): type II
Soret Red Shift (CYP3A4 [1]): 6 nm
fold lower affinity vs. IMZ (CYP3A4 [1]; from KD): ~ 38 fold
ΔAbsmax (1μM), peak minus trough intensity from difference spectrum (CYP3A4 [1]; normalized to 1 μM): 0.058
Absmax (1μM), maximum peak trough intensity normalized to 1 μM (CYP2C9 (hepta mutant); 20°C): 0.041
Soret band red shift (CYP2C9 (hepta mutant); 20°C): 2 nm
Kd (CYP2C9 (hepta mutant); [9]): 10000 µM
optical binding spectrum type (CYP2C9 (hepta mutant); UV/vis difference spectrum): type II
fold lower affinity vs. 1,2,4-TRZ (CYP2C9 (hepta mutant); from KD): ~50 fold
fold lower affinity vs. IMZ (CYP2C9 (hepta mutant); from KD): ~ 101 fold
pKa [2]: 1.15
ΔH°binding (CYP3A4 [3]): -8.8 ± 0.1 kcal/mol
ΔS°binding (CYP3A4 [3]): −22 ± 0.4 cal/mol/K

SMILES: c1nc[nH]n1 [1,2,4-TRZ, 1H-1,2,4-triazole]
Abs390 (1μM), estimate of efficiency of type II ligand to decrease high spin enzyme fraction (CYP3A4 [1]; 20°C): −0.025
Soret band red shift (CYP3A4 [1]; 20°C): 6 nm
Absmax (1μM), first value of two site fit (CYP3A4 [1]; 20°C, two site model): 0.0065
Absmax (1μM), second value of two site fit (CYP3A4 [1]; 20°C, two site model): 0.050
Kd (CYP3A4 [1]; read-out: KD1, 20°C, two site binding model, first (high affinity) equivalent): 39 µM
Kd (CYP3A4 [1]; read-out: KD2, 20°C, two site binding model, second (low affinity) equivalent): 4800 µM
Soret band red shift (CYP2C9 (hepta mutant); 20°C): 5 nm
Absmax (1μM), first value of two site fit (CYP2C9 (hepta mutant); 20°C, two site model): 0.023
Absmax (1μM), second value of two site fit (CYP2C9 (hepta mutant); 20°C, two site model): 0.044
Kd (CYP2C9 (hepta mutant); read-out: KD1, 20°C, two site binding model, first equivalent): 198 µM
Kd (CYP2C9 (hepta mutant); read-out: KD2, 20°C, two site binding model, second low affinity equivalent): 2850 µM
pKa [2]: 2.45

SMILES: Clc1ccc(-n2ccnc2)cc1 [1-CPI]
ΔΔH°binding on chloro substitution (CYP2B4): -0.07 kcal/mol

SMILES: Cc1cccc(-c2c[nH]nn2)c1 [4-(3-methylphenyl)-1H-1,2,3-triazole]
affinity [4]: 0.018 µM

Kd (CYP3A4 [1]; 25°C, 100 mM KPi, hyperbolic binding model): 45.8 µM and 46 µM
optical binding spectrum type (CYP3A4 [1]): type II
Soret Red Shift (CYP3A4 [1]): 2 nm
Kd (CYP3A4 [1]; read-out: KD200mM, 200 mM KPi): 78 µM
compound remaining (CYP3A4 [5]; 2.5 μM substrate, 25 min incubation, 100 nM CYP3A4 in Supersomes): ~ 50%
metabolism slowed relative to the parent molecule (CYP3A4 [5]; CYP3A4 Supersomes, relative to 17EE): 3 – 10 fold
Km (CYP3A4 [5]; read-out: KM for total metabolism, substrate depletion, CYP3A4 Supersomes): 2.5 ± 0.4 µM
kcat for total metabolism (CYP3A4 [5]; substrate depletion, CYP3A4 Supersomes): 0.035 ± 0.005 s⁻¹
IC50 (CYP3A4 [6]): 17 ± 6 µM
SMILES: CC12CCC3c4ccc(O)cc4CCC3C1CCC2(O)c1cn[nH]n1 (stereo not drawn) [17-click, 17α-(2H-2,3,4-triazolyl)-estradiol]

ΔH°binding (CYP3A4 [3]): -8.1 ± 0.3 kcal/mol
ΔS°binding (CYP3A4 [3]): −10 ± 1 cal/mol/K
SMILES: c1c[nH]cn1 [IMZ, imidazole]
pKa298K ([2]; proton dissociation in 100 mM potassium chloride): 7.09 ± 0.1
pKa [2]: 6.99
